Source: US9427440B2, “Macrocyclic indole derivatives useful as hepatitis C virus inhibitors” (Janssen Sciences Ireland UC, priority 2008, dated 2016)

Legend:
NS5B 1a isolate 4 = NS5B 1a isolate 4 (Hepatitis C virus genotype 1a, UniProt P27958)
NS5B 4a isolate 1 [1] = molecular target: T1, NS5B 4a isolate 1 (Hepatitis C virus genotype 4a, UniProt O39929)
NS5B 1b isolate 2 = NS5B 1b isolate 2 (Hepatitis C virus genotype 1b, UniProt Q9WMX2)
NS5B 6a isolate 5 [2] = molecular target: T2, NS5B 6a isolate 5 (Hepatitis C virus genotype 6a, UniProt O39927); assay: biochemical
NS5B 1a isolate 2 = NS5B 1a isolate 2 (Hepatitis C virus genotype 1a, UniProt P27958)
NS5B 4a isolate 3 [3] = molecular target: T3, NS5B 4a isolate 3 (Hepatitis C virus genotype 4a, UniProt O39929)
NS5B 6a isolate 5 [4] = molecular target: T2, NS5B 6a isolate 5
NS5B 4a isolate 2 [5] = molecular target: T4, NS5B 4a isolate 2 (Hepatitis C virus genotype 4a, UniProt O39929); assay: biochemical
NS5B 2b isolate 2 = NS5B 2b isolate 2 (Hepatitis C virus genotype 2b, UniProt P26661)
NS5B 4a isolate 1 [6] = molecular target: T1, NS5B 4a isolate 1; assay: biochemical
NS5B 1a isolate 3 = NS5B 1a isolate 3 (Hepatitis C virus genotype 1a, UniProt P27958)
NS5B 1a isolate 1 = NS5B 1a isolate 1 (Hepatitis C virus genotype 1a, UniProt P27958)
NS5B 1b isolate 3 = NS5B 1b isolate 3 (Hepatitis C virus genotype 1b, UniProt Q9WMX2)
NS5B 4a isolate 3 [7] = molecular target: T3, NS5B 4a isolate 3; assay: biochemical
NS5B 4a isolate 2 [8] = molecular target: T4, NS5B 4a isolate 2
NS5B 5a isolate 4 = NS5B 5a isolate 4 (Hepatitis C virus genotype 5a, UniProt O39928); assay: Enzyme binding affinity, SPR (Biacore); parameters: species or system HCV
HCV NS5B 1bJ4 = HCV NS5B 1bJ4 (Hepatitis C virus genotype 1b (strain HC-J4) (HCV), UniProt O92972); assay: Inhibition assay with NS5b 1bJ4 (RdRp, SPA); format: biochemical; conditions: 50 nM NS5B 1bJ4 enzyme, radiolabeled GTP incorporation
Sequence of HCV NS5B 1bJ4 (O92972 whole entry, looked up): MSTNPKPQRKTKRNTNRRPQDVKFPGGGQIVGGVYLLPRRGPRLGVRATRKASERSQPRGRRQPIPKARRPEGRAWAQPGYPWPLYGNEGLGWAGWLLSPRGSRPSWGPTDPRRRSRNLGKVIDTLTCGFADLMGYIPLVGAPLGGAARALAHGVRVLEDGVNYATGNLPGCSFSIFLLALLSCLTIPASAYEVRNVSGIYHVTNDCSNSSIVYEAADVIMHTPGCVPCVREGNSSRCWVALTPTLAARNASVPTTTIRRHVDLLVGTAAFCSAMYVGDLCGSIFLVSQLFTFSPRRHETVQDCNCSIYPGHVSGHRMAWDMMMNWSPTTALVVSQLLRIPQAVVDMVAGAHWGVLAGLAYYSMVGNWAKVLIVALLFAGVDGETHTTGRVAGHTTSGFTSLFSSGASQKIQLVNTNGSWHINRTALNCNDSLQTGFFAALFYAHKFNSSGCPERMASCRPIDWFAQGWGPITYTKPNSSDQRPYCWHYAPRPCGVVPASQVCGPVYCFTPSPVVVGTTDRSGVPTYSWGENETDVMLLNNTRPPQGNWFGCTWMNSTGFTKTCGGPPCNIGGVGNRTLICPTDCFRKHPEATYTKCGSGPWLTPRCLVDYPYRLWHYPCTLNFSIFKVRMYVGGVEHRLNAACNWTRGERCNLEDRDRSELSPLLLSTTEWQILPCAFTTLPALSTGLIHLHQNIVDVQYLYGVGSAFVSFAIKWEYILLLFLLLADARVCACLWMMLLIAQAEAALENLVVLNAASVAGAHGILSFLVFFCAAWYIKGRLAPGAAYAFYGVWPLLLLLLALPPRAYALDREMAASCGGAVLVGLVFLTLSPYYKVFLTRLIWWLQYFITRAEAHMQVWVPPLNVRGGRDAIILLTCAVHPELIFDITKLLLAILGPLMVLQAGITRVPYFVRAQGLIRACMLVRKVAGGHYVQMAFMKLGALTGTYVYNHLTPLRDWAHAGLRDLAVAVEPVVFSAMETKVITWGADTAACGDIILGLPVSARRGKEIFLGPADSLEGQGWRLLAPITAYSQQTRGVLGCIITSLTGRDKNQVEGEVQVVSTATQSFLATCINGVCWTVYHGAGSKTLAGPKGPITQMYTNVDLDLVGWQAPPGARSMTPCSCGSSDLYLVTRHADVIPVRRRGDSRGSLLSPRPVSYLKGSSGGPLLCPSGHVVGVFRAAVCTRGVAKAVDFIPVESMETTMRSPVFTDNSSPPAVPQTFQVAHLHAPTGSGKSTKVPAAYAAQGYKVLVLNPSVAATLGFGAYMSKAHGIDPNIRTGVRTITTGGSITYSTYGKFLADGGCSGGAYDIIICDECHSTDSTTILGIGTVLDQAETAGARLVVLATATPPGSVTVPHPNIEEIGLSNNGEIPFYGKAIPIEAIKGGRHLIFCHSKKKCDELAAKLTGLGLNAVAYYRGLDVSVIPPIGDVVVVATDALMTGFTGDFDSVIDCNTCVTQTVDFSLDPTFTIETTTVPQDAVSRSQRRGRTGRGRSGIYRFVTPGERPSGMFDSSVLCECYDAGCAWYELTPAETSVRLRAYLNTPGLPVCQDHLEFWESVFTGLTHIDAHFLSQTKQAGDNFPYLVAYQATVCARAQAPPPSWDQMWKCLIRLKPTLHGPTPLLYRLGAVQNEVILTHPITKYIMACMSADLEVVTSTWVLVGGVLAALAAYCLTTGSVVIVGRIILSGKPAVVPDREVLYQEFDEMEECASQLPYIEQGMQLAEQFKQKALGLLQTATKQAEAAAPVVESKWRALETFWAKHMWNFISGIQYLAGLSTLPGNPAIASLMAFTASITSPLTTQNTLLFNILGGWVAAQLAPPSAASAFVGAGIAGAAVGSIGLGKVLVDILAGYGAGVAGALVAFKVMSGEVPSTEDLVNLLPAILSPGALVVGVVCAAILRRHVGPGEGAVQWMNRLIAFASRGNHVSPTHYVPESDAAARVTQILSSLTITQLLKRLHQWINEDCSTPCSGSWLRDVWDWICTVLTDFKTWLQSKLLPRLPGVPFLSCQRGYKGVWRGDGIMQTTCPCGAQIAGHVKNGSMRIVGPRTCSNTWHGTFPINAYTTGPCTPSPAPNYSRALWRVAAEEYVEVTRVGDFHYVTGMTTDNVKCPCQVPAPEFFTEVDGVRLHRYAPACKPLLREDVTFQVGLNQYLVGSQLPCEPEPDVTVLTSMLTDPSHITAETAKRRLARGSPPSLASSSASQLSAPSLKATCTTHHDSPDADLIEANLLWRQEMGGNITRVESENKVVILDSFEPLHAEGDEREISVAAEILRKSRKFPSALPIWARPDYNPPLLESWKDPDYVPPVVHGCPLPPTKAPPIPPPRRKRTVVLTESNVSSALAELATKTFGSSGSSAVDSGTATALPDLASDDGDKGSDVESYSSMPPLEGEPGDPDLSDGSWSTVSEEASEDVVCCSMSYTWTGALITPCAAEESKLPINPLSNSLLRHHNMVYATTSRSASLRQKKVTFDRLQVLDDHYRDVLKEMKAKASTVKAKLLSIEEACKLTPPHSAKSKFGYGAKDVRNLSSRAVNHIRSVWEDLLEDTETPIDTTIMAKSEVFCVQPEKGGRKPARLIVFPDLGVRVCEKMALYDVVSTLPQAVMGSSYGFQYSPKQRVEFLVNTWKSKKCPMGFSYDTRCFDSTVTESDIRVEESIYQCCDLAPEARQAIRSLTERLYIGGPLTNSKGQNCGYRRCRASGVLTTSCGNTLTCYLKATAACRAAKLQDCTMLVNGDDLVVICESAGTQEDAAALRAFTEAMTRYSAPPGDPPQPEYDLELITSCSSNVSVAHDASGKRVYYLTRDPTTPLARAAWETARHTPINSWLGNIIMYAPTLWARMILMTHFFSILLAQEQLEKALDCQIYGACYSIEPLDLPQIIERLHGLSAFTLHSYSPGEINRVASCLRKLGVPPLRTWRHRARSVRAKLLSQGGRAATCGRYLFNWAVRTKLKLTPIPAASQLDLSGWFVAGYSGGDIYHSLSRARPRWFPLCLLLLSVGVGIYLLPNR

[9] = system: HCV type 1b replicon in Huh-7 luc/neo (Huh-Luc) cells; assay: HCV replicon assay (Huh-Luc, luciferase); conditions: Hepatitis C virus, Huh-7, 72 h
HCV NS5B con1b = HCV NS5B con1b (Hepatitis C virus genotype 1b (isolate Con1) (HCV), UniProt Q9WMX2); assay: RNA-dependent RNA polymerase assay NS5B con1b; conditions: read-out: IC50 Con1b; 20 nM Con1b NS5B enzyme, primer-dependent transcription assay
Procedure: Fifty-percent inhibitory concentrations (Table 1: IC50 con1b) were determined according to the method as described previously (Pauwels et al, 2007, J Virol 81:6909-19) using a primer-dependent transcription assay. […] 600 nM GTP and 0.13 μCi of [^3H]GTP was then added to initiate the 40-μl reaction mixture, which was then incubated at room temperature for 2 h before the reaction was stopped by addition of 40-μl streptavidin-coated SPA beads.

| SMILES | EC50 [9] [nM] | also measured |
| --- | --- | --- |
| COc1ccc2c(c1)C=C1Cn3c-2c(C2CCCCC2)c2ccc(cc23)C(=O)NS(=O)(=O)N(C)CCOCCN(C)C1=O [Compound 1] | – | t1/2 (NS5B 1a isolate 4): 14.9 min; t1/2 (NS5B 4a isolate 1 [1]): 26.7 min; t1/2 (NS5B 1b isolate 2): 172.1 min; Kd (NS5B 6a isolate 5 [2]): 32 nM; t1/2 (NS5B 1a isolate 2): 31.3 min; t1/2 (NS5B 4a isolate 3 [3]): 19.1 min; t1/2 (NS5B 6a isolate 5 [4]): 7.3 min; Kd (NS5B 4a isolate 2 [5]): 1.4 nM; t1/2 (NS5B 2b isolate 2): 1.0 min; Kd (NS5B 4a isolate 1 [6]): 2.1 nM; t1/2 (NS5B 1a isolate 3): 19.2 min; t1/2 (NS5B 1a isolate 1): 24.2 min; t1/2 (NS5B 1b isolate 3): 96.4 min; Kd (NS5B 4a isolate 3 [7]): 3.4 nM; t1/2 (NS5B 4a isolate 2 [8]): 30.1 min; Kd (NS5B 5a isolate 4): 22 nM |
| COc1ccc2c(c1)C=C1Cn3c-2c(C2CCCCC2)c2ccc(cc23)C(=O)NS(=O)(=O)N2CCN(CCNC1=O)CC2 [Compound 5] | 920 | IC50 (HCV NS5B 1bJ4): 290 nM |
| COc1ccc2c(c1)C=C1Cn3c-2c(C2CCCCC2)c2ccc(cc23)C(=O)NS(=O)(=O)N(C)CCN(C)CCNC1=O [Compound 6] | 550 | – |
| COc1ccc2c(c1)[C@@H]1C[C@]13Cn1c-2c(C2CCCCC2)c2ccc(cc21)C(=O)NS(=O)(=O)N(C)CCOCCN(C)C3=O [Compound 8, (1aR,12bS)-8-cyclohexyl-11-methoxy-16,22-dimethyl-1,12b-dihydro-5,1a-(methanoiminothioiminoethanooxyethanoiminomethano)cyclopropa[d]-indolo[2,1-a][2]benzazepine-13,23(2H)-dione 15,15-dioxide] | 40 | – |
| COc1ccc2c(c1)[C@H]1C[C@@]13Cn1c-2c(C2CCCCC2)c2ccc(cc21)C(=O)NS(=O)(=O)N(C)CCOCCN(C)C3=O [Compound 9, (1 aS,12bR)-8-cyclohexyl-11-methoxy-16,22-dimethyl-1,12b-dihydro-5,1a-(methanoiminothioiminoethanooxyethanoiminomethano)cyclopropa[d]indolo-[2,1-a][2]benzazepine-13,23(2H)-dione 15,15-dioxide] | 800 | – |
| COc1ccc2c(c1)C1CC13Cn1c-2c(C2CCCCC2)c2ccc(cc21)C(=O)NS(=O)(=O)N(C)CCCCNC3=O (stereo not shown) [Compound 10, 8-cyclohexyl-11-methoxy-16-methyl-1,12b-dihydro-5,1a-(methanoiminothioiminobutanoimino)cyclopropa[d]indolo[2,1-a][2]benzazepine-13,22(2H)-dione 15,15-dioxide] | 60 | IC50 (HCV NS5B 1bJ4): 280 nM |
| COc1ccc2c(c1)C1CC13Cn1c-2c(C2CCCCC2)c2ccc(cc21)C(=O)NS(=O)(=O)N(C)CCN1CCN(CC1)C3=O (stereo not shown) [Compound 11, 31-cyclohexyl-8-methoxy-22-methyl-21-thia-1,13,20,22,25-pentaazaheptacyclo-[23.2.2.1^3,13.1^12,15.1^14,18.0^3,5.0^6,11]dotriaconta-6,8,10,12(31),14(30),15,17-heptaene-2,19-dione 21,21-dioxide] | 55 | IC50 (HCV NS5B 1bJ4): 220 nM |
| COc1ccc2c(c1)C1CC13Cn1c-2c(C2CCCCC2)c2ccc(cc21)C(=O)NS(=O)(=O)N(C)C/C=C/CCNC3=O (stereo not shown) [Compound 12, 8-cyclohexyl-11-methoxy-16-methyl-1,12b-dihydro-5,1a-(methaniminothio-iminopent[2]enoiminomethano)cyclopropa[d]indolo[2,1-a][2]benzazepine-13,23(2H)-dione 15,15-dioxide] | 290 | IC50 (HCV NS5B 1bJ4): 930 nM |
| COc1ccc2c(c1)C=C1Cn3c-2c(C2CCCCC2)c2ccc(cc23)C(=O)NS(=O)(=O)N(C)CC=CCNC1=O [Compound 13] | 390 | IC50 (HCV NS5B 1bJ4): 190 nM |
| COc1ccc2c(c1)C=C1Cn3c-2c(C2CCCCC2)c2ccc(cc23)C(=O)NS(=O)(=O)N(C)CCN2CCN(CC2)C1=O [Compound 15] | 180 | – |
| COc1ccc2c(c1)C(C)=C1Cn3c-2c(C2CCCCC2)c2ccc(cc23)C(=O)NS(=O)(=O)N(C)CCOCCN(C)C1=O [Compound 16] | 78 | – |
| COc1ccc2c(c1)C(C)=C1Cn3c-2c(C2CCCCC2)c2ccc(cc23)C(=O)NS(=O)(=O)N(C)CCCCN(C)C1=O [Compound 17] | 170 | – |
| COc1ccc2c(c1)C=C1Cn3c-2c(C2CCCCC2)c2ccc(cc23)C(=O)NS(=O)(=O)N(C)CCCCN(C)C1=O [Compound 18] | 79 | – |
| CN1CCOCCN(C)S(=O)(=O)NC(=O)c2ccc3c(C4CCCCC4)c4n(c3c2)CC(=Cc2cc(F)ccc2-4)C1=O [Compound 19] | 72 | IC50 (HCV NS5B con1b): 31 nM |
| CC1=C2Cn3c(c(C4CCCCC4)c4ccc(cc43)C(=O)NS(=O)(=O)N(C)CCOCCN(C)C2=O)-c2ccc(F)cc21 [Compound 20] | 81 | IC50 (HCV NS5B con1b): 38 nM |
| CN1CCOCCN(C)S(=O)(=O)NC(=O)c2ccc3c(C4CCCCC4)c4n(c3c2)CC(=Cc2cc(Cl)ccc2-4)C1=O [Compound 21] | 280 | – |
| COc1ccc2c(c1)C=C1Cn3c-2c(C2CCCCC2)c2ccc(cc23)C(=O)NS(=O)(=O)N(C)CCCCCCN(C)C1=O [Compound 22] | 160 | – |
| COc1ccc2c(c1)C=C1Cn3c-2c(C2CCCCC2)c2ccc(cc23)C(=O)NS(=O)(=O)NCCN(C)CCNC1=O [Compound 23] | 470 | – |
| CN1CCCCN(C)S(=O)(=O)NC(=O)c2ccc3c(C4CCCCC4)c4n(c3c2)CC(=Cc2ccc(Cl)cc2-4)C1=O [Compound 24] | 14500 | – |
| COc1ccc2c(c1)C=C1Cn3c-2c(C2CCCCC2)c2ccc(cc23)C(=O)NS(=O)(=O)NCCCCN(C)C1=O [Compound 25] | 550 | – |
| COc1ccc2c(c1)C=C1Cn3c-2c(C2CCCCC2)c2ccc(cc23)C(=O)NS(=O)(=O)N(C)CCCCCNC1=O [Compound 26] | 130 | – |
| CN1CCCCCNC(=O)C2=Cc3ccc(Cl)cc3-c3c(C4CCCCC4)c4ccc(cc4n3C2)C(=O)NS1(=O)=O [Compound 27] | 10200 | – |
| COc1ccc2c(c1)C=C1Cn3c-2c(C2CCCCC2)c2ccc(cc23)C(=O)NS(=O)(=O)N(C(C)C)CCCCN(C)C1=O [Compound 28] | 330 | – |
| COc1ccc2c(c1)C=C1Cn3c-2c(C2CCCCC2)c2ccc(cc23)C(=O)NS(=O)(=O)N(C)CCCCNC1=O [Compound 38] | 912 | – |
